The source of these data is ChEMBL document CHEMBL5465560, “Selectivity Literature for EUbOPEN Chemogenomic Library” (2024).

Assay [1] deals with Mitogen-activated protein kinase 7 (Homo sapiens) (UniProt Q13164). In words: Selectivity interaction (ProQinase) EUB0000171b MAPK7.
Assay [2] concerns the target Mitogen-activated protein kinase 1 (Homo sapiens, UniProt P28482). The conditions noted are these: at 10 µM.
Assay [3] concerns the target Homeodomain-interacting protein kinase 1 (Homo sapiens, UniProt Q86Z02). The following applies: at 10 µM.
Assay [4] has as its target Casein kinase II subunit alpha (Homo sapiens, UniProt P68400). In words: Selectivity interaction (Kinase panel (DSF assay)) EUB0001558a CSNK2A1.
In assay [5] the target is T1, cAMP-dependent protein kinase catalytic subunit PRKX (Homo sapiens) (UniProt P51817).
T1 sequence (whole entry): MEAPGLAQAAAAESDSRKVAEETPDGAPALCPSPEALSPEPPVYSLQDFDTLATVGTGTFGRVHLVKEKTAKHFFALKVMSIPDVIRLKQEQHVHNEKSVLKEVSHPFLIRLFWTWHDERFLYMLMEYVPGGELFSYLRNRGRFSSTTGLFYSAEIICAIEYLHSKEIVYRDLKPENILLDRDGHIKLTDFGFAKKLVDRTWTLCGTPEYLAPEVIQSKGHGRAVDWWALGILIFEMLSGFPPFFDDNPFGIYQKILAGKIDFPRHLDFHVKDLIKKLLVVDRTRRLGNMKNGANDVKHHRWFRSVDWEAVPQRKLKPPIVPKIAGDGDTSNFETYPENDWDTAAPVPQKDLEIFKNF
The conditions noted are these: at 10 µM.

The target in assay [6] is T2, Interleukin-1 receptor-associated kinase 4 (Homo sapiens) (UniProt Q9NWZ3).
T2 sequence (whole entry): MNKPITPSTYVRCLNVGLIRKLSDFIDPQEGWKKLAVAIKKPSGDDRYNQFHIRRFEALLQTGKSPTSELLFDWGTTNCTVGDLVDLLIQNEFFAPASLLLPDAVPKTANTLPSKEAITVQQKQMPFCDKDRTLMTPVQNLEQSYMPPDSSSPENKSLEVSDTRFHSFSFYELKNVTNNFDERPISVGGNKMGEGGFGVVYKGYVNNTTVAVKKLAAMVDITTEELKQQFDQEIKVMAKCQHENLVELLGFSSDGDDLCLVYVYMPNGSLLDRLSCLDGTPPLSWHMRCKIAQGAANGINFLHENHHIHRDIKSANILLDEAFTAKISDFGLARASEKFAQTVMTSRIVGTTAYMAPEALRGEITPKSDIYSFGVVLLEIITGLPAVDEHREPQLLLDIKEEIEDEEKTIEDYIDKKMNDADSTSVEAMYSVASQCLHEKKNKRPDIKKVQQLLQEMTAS
Nature of the assay: Selectivity interaction (KinomeScan (DiscoverX)) EUB0000092b IRAK4. The following applies: at 10 µM.

Assay [7] concerns the target Ribosomal protein S6 kinase beta-1 (Homo sapiens, UniProt P23443). Nature of the assay: Selectivity interaction (Kinase screening (Upstate/Millipore)) EUB0000604a RPS6KB1.
Assay [8] concerns the target T3, Interleukin-1 receptor-associated kinase 4 (Homo sapiens, UniProt Q9NWZ3).
T3 sequence (Q9NWZ3 whole entry): T2 sequence (whole entry)
Nature of the assay: Selectivity interaction (Kinase counterscreening (biochemical assay)) EUB0000604a IRAK4. (In general: Counterscreens check selectivity or assay interference.)

The target of assay [9] is Histamine H2 receptor (Homo sapiens) (UniProt P25021). Nature of the assay: Selectivity interaction (Panel of non-epigenetic targets (kinases, GPCRs, ion channels, and transporters, Eurofins) ) EUB0000271b HRH2. The following applies: at 1 µM.
Sequence of Histamine H2 receptor (Homo sapiens) (P25021 whole entry): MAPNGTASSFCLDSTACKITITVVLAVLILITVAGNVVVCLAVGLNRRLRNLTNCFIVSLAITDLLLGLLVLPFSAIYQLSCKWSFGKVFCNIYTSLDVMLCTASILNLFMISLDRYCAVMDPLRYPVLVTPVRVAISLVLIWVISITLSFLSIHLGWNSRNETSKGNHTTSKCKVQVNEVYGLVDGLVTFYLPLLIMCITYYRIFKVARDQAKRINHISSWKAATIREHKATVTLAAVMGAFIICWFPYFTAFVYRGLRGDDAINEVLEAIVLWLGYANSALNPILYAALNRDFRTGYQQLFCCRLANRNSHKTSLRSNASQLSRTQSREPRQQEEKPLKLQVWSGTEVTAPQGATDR
In assay [10] the target is Androgen receptor (Homo sapiens) (UniProt P10275). In words: Selectivity interaction (Panel of non-epigenetic targets (kinases, GPCRs, ion channels, and transporters, Eurofins) ) EUB0000271b AR. The conditions noted are these: at 1 µM.
The test system of assay [11] is Tyrosine-protein kinase ABL1 (Homo sapiens), P00519 [T315I]. In words: Selectivity interaction (KinomeScan (DiscoverX)) EUB0000045b ABL1. The conditions noted are these: at 10 µM.
Assay [12] concerns the target T4, Tyrosine-protein kinase Mer (Homo sapiens) (UniProt Q12866).
T4 sequence (whole entry): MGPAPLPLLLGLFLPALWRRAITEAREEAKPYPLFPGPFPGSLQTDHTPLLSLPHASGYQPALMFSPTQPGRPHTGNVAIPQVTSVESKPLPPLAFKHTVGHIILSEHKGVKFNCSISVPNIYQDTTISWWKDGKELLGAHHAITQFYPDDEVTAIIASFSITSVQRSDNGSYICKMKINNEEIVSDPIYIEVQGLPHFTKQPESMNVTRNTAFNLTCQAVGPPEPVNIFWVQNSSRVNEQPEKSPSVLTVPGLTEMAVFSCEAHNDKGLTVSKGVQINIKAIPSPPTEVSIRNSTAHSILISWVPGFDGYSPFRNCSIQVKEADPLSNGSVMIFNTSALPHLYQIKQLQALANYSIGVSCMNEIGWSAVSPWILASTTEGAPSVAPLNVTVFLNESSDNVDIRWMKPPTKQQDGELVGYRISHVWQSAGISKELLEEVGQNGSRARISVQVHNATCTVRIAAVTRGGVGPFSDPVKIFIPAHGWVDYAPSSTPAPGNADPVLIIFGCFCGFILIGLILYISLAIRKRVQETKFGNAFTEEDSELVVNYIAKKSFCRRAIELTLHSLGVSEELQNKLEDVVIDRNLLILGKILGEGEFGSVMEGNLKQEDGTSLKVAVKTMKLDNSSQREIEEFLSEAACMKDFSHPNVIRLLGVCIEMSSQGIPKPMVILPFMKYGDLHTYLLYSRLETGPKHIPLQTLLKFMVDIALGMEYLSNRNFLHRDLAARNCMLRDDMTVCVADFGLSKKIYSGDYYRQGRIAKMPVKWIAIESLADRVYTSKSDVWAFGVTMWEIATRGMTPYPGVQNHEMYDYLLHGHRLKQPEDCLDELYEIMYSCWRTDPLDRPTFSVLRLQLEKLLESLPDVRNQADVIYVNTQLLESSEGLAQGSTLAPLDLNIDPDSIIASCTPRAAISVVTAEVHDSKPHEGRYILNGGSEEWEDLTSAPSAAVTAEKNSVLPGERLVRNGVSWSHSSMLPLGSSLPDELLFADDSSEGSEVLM
In words: Selectivity interaction (LanthaScreen Eu Kinase Binding Assay) EUB0001632a MERTK. The conditions noted are these: at 10 µM.

Assay [13] deals with Tyrosine-protein kinase JAK1 (Homo sapiens, UniProt P23458). Nature of the assay: Selectivity interaction (ActivX KiNativ screen (kinase selectivity in THP-1 cell lysates)) EUB0000639a JAK1. The assay is classed as subcellular. The conditions noted are these: lysate, at 0.2 µM.
The target of assay [14] is Serine/threonine-protein kinase PLK1 (Homo sapiens, UniProt P53350). In words: Selectivity interaction (ActivX KiNativ screen (kinase selectivity in THP-1 cell lysates)) EUB0000639a PLK1. The conditions noted are these: lysate, at 0.2 µM. The assay is classed as subcellular.
Sequence of Serine/threonine-protein kinase PLK1 (P53350 whole entry): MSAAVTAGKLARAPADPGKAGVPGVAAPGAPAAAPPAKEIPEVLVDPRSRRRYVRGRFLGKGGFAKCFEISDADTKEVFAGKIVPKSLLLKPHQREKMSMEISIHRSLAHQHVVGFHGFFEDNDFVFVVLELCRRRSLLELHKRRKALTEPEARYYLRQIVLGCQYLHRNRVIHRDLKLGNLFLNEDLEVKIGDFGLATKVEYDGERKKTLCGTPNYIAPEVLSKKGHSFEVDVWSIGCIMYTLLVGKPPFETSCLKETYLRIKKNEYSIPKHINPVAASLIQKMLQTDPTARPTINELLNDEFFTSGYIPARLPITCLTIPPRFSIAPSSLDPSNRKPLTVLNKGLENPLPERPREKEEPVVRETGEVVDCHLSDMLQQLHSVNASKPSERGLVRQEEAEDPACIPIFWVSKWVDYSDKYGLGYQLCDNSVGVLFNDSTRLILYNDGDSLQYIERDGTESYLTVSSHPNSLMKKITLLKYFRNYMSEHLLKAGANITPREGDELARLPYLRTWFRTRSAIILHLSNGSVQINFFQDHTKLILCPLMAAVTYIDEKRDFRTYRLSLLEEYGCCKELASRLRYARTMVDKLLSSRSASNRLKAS
The target of assay [15] is Ribosomal protein S6 kinase alpha-1 (Homo sapiens, UniProt Q15418). Nature of the assay: Selectivity interaction (ActivX KiNativ screen (kinase selectivity in THP-1 cell lysates)) EUB0000639a RPS6KA1. The assay is classed as subcellular. The following applies: lysate, at 0.01 µM.
Sequence of Ribosomal protein S6 kinase alpha-1 (Q15418 whole entry): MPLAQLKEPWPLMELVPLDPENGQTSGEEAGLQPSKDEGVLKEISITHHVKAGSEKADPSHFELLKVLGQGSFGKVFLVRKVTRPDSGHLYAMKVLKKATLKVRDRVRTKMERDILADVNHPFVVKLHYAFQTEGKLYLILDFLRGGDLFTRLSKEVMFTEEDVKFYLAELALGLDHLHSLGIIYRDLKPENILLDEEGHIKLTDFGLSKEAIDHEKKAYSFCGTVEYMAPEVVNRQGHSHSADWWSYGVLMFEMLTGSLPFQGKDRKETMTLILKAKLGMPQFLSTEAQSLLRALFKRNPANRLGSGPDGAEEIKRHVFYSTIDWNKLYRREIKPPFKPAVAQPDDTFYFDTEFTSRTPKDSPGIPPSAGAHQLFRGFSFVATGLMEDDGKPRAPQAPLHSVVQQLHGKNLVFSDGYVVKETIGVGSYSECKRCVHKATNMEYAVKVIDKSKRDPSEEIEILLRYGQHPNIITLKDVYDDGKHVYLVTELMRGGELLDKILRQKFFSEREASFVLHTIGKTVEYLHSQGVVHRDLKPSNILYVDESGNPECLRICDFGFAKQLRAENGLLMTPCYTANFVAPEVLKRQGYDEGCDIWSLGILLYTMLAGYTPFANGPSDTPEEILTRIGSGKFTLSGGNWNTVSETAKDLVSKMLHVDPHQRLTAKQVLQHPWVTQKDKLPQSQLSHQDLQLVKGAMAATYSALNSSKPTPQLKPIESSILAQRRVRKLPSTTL
Assay [16] deals with Death-associated protein kinase 1 (Homo sapiens, UniProt P53355). Nature of the assay: Selectivity interaction (KinomeScan (DiscoverX)) EUB0000618a DAPK1. The conditions noted are these: at 10 µM.

Sequence of Mitogen-activated protein kinase 7 (Homo sapiens) (Q13164 2-816 limits assumed): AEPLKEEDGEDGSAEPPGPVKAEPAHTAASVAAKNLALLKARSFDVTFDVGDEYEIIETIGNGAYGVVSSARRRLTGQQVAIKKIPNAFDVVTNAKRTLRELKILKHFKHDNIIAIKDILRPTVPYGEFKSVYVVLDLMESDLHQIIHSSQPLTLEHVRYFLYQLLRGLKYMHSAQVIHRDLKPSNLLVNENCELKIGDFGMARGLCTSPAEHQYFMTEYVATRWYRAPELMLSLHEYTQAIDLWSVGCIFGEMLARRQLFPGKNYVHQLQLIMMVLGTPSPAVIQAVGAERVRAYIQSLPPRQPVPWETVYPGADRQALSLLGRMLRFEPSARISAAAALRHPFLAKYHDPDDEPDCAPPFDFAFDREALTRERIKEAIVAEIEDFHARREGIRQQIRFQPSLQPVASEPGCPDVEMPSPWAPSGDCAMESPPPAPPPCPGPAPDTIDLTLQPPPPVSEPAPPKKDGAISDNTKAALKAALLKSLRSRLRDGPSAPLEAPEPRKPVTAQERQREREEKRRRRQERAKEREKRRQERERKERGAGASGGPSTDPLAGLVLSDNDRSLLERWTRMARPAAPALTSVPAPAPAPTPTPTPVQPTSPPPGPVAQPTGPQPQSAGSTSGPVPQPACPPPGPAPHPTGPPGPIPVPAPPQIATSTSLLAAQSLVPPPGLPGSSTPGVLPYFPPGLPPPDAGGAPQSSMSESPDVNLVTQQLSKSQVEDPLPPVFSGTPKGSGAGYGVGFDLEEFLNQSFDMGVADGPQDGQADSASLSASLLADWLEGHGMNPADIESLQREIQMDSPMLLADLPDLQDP
Sequence of Homeodomain-interacting protein kinase 1 (Q86Z02 whole entry, looked up): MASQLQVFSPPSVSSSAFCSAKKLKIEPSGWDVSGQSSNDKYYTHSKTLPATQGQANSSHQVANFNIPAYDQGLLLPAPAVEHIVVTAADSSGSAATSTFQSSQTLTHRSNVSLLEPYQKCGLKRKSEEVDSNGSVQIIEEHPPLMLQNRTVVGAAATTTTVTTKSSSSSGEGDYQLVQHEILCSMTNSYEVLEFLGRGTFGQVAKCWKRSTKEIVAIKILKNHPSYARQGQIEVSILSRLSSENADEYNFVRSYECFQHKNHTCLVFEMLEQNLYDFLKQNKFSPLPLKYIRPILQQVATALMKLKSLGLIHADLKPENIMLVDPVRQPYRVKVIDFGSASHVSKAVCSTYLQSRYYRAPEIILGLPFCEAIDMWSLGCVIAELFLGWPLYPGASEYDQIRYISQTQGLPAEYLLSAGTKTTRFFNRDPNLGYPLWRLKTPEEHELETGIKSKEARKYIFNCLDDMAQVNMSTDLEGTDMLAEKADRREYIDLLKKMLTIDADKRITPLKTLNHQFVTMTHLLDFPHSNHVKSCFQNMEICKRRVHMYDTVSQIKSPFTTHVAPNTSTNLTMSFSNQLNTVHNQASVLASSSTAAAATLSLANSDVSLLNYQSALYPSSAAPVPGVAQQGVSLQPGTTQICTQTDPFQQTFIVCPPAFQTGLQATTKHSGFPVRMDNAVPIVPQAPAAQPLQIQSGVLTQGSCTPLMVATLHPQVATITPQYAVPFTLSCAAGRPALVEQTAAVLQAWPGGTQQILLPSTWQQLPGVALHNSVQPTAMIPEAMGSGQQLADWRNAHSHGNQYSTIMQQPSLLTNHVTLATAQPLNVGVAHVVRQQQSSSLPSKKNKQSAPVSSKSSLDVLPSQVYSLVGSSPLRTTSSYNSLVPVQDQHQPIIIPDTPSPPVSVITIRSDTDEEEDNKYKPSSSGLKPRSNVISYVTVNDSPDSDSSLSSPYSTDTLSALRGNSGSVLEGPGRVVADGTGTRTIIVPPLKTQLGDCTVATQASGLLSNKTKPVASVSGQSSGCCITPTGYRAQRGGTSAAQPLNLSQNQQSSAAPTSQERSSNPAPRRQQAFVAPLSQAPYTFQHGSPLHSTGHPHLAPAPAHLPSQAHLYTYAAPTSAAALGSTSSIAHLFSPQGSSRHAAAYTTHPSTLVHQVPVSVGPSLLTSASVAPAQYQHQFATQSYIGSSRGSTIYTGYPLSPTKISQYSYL
Sequence of Mitogen-activated protein kinase 1 (P28482 whole entry): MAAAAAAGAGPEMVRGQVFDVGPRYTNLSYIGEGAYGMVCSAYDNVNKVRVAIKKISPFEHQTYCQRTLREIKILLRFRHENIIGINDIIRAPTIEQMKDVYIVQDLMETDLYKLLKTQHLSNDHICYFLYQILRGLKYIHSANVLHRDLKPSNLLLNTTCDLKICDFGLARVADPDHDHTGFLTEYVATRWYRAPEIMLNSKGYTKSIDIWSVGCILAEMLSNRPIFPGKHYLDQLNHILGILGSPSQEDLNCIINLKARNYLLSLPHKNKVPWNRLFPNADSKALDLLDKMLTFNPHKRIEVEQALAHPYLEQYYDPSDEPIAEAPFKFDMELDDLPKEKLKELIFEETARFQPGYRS
Sequence of Ribosomal protein S6 kinase beta-1 (P23443 whole entry, looked up): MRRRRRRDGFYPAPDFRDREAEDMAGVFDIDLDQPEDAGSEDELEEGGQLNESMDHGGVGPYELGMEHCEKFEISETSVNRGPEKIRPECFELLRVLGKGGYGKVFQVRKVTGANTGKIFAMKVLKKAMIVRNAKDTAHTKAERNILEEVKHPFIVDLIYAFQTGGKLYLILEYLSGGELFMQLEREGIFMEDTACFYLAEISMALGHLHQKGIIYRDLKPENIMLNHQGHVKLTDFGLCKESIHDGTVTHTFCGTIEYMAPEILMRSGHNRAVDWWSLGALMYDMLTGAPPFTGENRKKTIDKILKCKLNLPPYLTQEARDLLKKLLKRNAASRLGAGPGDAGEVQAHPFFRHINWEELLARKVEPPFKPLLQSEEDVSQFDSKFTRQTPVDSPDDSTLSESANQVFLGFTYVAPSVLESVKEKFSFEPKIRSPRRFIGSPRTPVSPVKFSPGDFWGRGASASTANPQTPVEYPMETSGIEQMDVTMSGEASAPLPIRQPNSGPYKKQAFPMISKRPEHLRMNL
Sequence of Casein kinase II subunit alpha (P68400 whole entry, looked up): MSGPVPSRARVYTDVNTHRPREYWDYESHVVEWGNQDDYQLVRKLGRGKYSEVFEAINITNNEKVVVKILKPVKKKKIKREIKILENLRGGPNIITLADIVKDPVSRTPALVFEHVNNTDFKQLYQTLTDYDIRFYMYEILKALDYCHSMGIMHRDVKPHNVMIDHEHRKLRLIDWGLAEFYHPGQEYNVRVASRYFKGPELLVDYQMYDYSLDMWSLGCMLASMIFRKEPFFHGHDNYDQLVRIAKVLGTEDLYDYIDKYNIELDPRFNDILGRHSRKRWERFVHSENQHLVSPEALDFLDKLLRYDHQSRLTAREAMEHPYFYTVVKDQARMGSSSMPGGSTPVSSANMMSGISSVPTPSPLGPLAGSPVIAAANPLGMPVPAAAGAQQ

Regarding `C=CC(=O)Nc1cccc(C(=O)Nc2ccc(Nc3cc(-c4[nH]c(SC)nc4C)ccn3)cc2)c1`, the values for the % of control in assay [1] (at 1 µM) and in assay [1] (at 5 µM) were 83% and 73%, respectively.
As to `Cc1cc([C@@H](C)Nc2ccccc2C(=O)O)c2nc(N3CCOCC3)cc(=O)n2c1` [AZD-6482], the % of control in [2] and in assay [3] was 100% each time.
On to `CC(C)(O)[C@H](F)CN1Cc2cc(NC(=O)c3cnn4cccnc34)c(N3CCOCC3)cc2C1=O`, for which the dTM in assay [4] was found to be 0.3 K.
On to `CCN(CC)CCCCNc1ncc2cc(-c3cc(OC)cc(OC)c3)c(NC(=O)NC(C)(C)C)nc2n1`, for which the % of control in assay [5] is 100%.
In assay [6], `CCC(=O)N1CCN(c2ccc(-n3c(=O)ccc4cnc5ccc(-c6cnc7ccccc7c6)cc5c43)cc2C(F)(F)F)CC1` gave a % of control of 90%.
As usually defined, the Ki is the equilibrium dissociation constant of an inhibitor or competing ligand from its target. For the compound `Cc1cnc(Nc2ccc(F)cc2Cl)nc1-c1c[nH]c(C(=O)N[C@H](CO)c2cccc(Cl)c2)c1`, in assay [7], the % of inhibition was determined as 18%. For the same compound, the Ki in assay [8] was over 4 µM.
For the compound `Cc1cc(C)cc([C@@H]2c3cc(C)ccc3NC(=O)CN2C(=O)c2ccc(Br)s2)c1`, the % of inhibition in [9] was -18%; in assay [10], -7%.
Compound `C=CC(=O)Nc1cc(-n2c(=O)ccc3cnc4ccc(-c5ccc(NS(C)(=O)=O)cc5)cc4c32)ccc1C` showed a % of control in assay [11] of 100%.
Turning to `Cn1cc(-n2cnc3c(NCc4nc5cc(Cl)c(Cl)cc5[nH]4)nc(N4CCOCC4)nc32)cn1`, the % of inhibition in assay [12] was -48.1%.
For the compound `CC[C@@H]1[C@H](F)C(=O)N[C@@H]1COc1nccc2cc(C(N)=O)c(OC)cc12` [ZIMLOVISERTIB], the results for the % of inhibition in assay [13], in assay [14] and in assay [15] were -7.3%, -0.2% and 16.9%, respectively.
Turning to `O[C@H]1CC[C@H](Nc2ncc3nc(Nc4c(F)cc(F)cc4F)n([C@H]4CCOC4)c3n2)CC1`, the % of control in assay [16] was 95%.
